{"source": "paper PMC5940854", "about": "“Nitrothiophene carboxamides, a novel narrow spectrum antibacterial series: Mechanism of action and Efficacy” (Scientific Reports, 2018)", "assay_type_in_all_cases": "cell-based", "key": {"[1]": {"test_system": "E. coli mdtB knockout strain", "test": "MIC, efflux pump knockout mdtB", "conditions": "Escherichia coli, read-out: MIC mdtB", "method": "(§1) The inoculum used for all the experiments is derived from a single seed lot that is maintained as glycerol stocks at −80 °C and are sub cultured on LB plate for isolated colonies. Single colony of each strain is grown in M9 medium. All test compound stocks and dilutions are prepared in DMSO. Serial two-fold dilutions of compounds are prepared separately, with the concentrations ranging from 2 mg/mL to 0.015 mg/mL. To 150 µl (3–7 × 10^5 CFU/ml) of bacterial culture in 96 well microtitre plates, 3 μL compound from each of the dilutions is added to respective wells to obtain final concentrations ranging from 40 µg/mL to 0.3 µg/mL of the test compounds. Media control, culture control and appropriate reference drug controls are included. […] Growth is monitored by checking absorbance at 600 nm (A600). […] The samples from MIC and above concentrations are plated for MBC (Minimum Bactericidal Concentration). The samples are diluted 1:10 and plated on LB agar plates. […] The killing kinetics is determined by enumerating survivors at various time points following compound exposure. E. coli cells (~10^7 CFU/ml; A600 of 0.1) are treated with various concentrations (40 µg/mL to 0.3 µg/mL) of compounds in a 96-well microtitre plate. […] Data is expressed as the log10 CFU for each drug treatment."}, "[2]": {"test_system": "E. coli emrB knockout strain", "test": "MIC, efflux pump knockout emrB", "conditions": "Escherichia coli, read-out: MIC emrB", "method": "as §1"}, "[3]": {"test_system": "E. coli mdtG knockout strain", "test": "MIC, efflux pump knockout mdtG", "conditions": "Escherichia coli, read-out: MIC mdtG", "method": "as §1"}, "[4]": {"test_system": "E. coli ∆acrB JW0451-2", "test": "MIC, E. coli ∆acrB", "conditions": "Escherichia coli, read-out: MIC acrB", "method": "as §1, with “plate. At various time intervals (0 to 8 h), 30 μl volumes of treated cultures are serially diluted and plated on LB agar plates.” for “plate.”"}, "[5]": {"test_system": "E. coli mdfA knockout strain", "test": "MIC, efflux pump knockout mdfA", "conditions": "Escherichia coli, read-out: MIC mdfA", "method": "as §1"}, "[6]": {"test_system": "E. coli mdtL knockout strain", "test": "MIC, efflux pump knockout mdtL", "conditions": "Escherichia coli, read-out: MIC mdtL", "method": "as §1"}, "[7]": {"test_system": "E. coli acrF knockout strain", "test": "MIC, efflux pump knockout acrF", "conditions": "Escherichia coli, read-out: MIC acrF", "method": "as §1"}, "[8]": {"test_system": "E. coli emrE knockout strain", "test": "MIC, efflux pump knockout emrE", "conditions": "Escherichia coli, read-out: MIC emrE", "method": "as §1"}, "[9]": {"test_system": "E. coli hsrA knockout strain", "test": "MIC, efflux pump knockout hsrA", "conditions": "Escherichia coli, read-out: MIC hsrA", "method": "as §1"}, "[10]": {"test_system": "E. coli acrZ knockout strain", "test": "MIC, efflux pump knockout acrZ", "conditions": "Escherichia coli, read-out: MIC acrZ", "method": "as §1"}, "[11]": {"test_system": "wild-type E. coli CGSC#7636 (BW25113)", "test": "MIC, wild-type E. coli", "conditions": "Escherichia coli, BW25113, E. coli WT BW25113; read-out: MIC WT", "method": "as §1, with “plate. At various time intervals (0 to 8 h), 30 μl volumes of treated cultures are serially diluted and plated on LB agar plates.” for “plate.”"}, "[12]": {"test_system": "E. coli yciM knockout strain", "test": "MIC, efflux pump knockout yciM", "conditions": "Escherichia coli, read-out: MIC yciM", "method": "as §1"}, "[13]": {"test_system": "E. coli mdtK knockout strain", "test": "MIC, efflux pump knockout mdtK", "conditions": "Escherichia coli, read-out: MIC mdtK", "method": "as §1"}, "[14]": {"test_system": "E. coli acrD knockout strain", "test": "MIC, efflux pump knockout acrD", "conditions": "Escherichia coli, read-out: MIC acrD", "method": "as §1"}, "[15]": {"test_system": "E. coli macB knockout strain", "test": "MIC, efflux pump knockout macB", "conditions": "Escherichia coli, read-out: MIC macB", "method": "as §1"}, "[16]": {"test_system": "E. coli ∆tolC JW5503-1", "test": "MIC, E. coli ∆tolC", "conditions": "Escherichia coli, read-out: MIC tolC", "method": "as §1, with “plate. At various time intervals (0 to 8 h), 30 μl volumes of treated cultures are serially diluted and plated on LB agar plates.” for “plate.”"}, "[17]": {"test_system": "E. coli bcr knockout strain", "test": "MIC, efflux pump knockout bcr", "conditions": "Escherichia coli, read-out: MIC bcr", "method": "as §1"}, "[18]": {"test_system": "E. coli emrY knockout strain", "test": "MIC, efflux pump knockout emrY", "conditions": "Escherichia coli, read-out: MIC emrY", "method": "as §1"}}}
{"compound": "CN(C)[C@@H]1C(O)=C(C(N)=O)C(=O)[C@@]2(O)C(O)=C3C(=O)c4c(O)cccc4[C@@](C)(O)[C@H]3C[C@@H]12", "note": "[tetracycline, reference compound]", "values": [{"measurement": "MIC", "setting": "[1]", "value": 1.2, "unit": "µg/mL"}, {"measurement": "MIC", "setting": "[2]", "value": 1.2, "unit": "µg/mL"}, {"measurement": "MIC", "setting": "[3]", "value": 1.2, "unit": "µg/mL"}, {"measurement": "MIC", "setting": "[4]", "value": 0.3, "unit": "µg/mL"}, {"measurement": "MIC", "setting": "[5]", "value": 1.2, "unit": "µg/mL"}, {"measurement": "MIC", "setting": "[6]", "value": 1.2, "unit": "µg/mL"}, {"measurement": "MIC", "setting": "[7]", "value": 1.2, "unit": "µg/mL"}, {"measurement": "MIC", "setting": "[8]", "value": 1.2, "unit": "µg/mL"}, {"measurement": "MIC", "setting": "[9]", "value": 1.2, "unit": "µg/mL"}, {"measurement": "MIC", "setting": "[10]", "value": 1.2, "unit": "µg/mL"}, {"measurement": "MIC", "setting": "[11]", "value": 1.2, "unit": "µg/mL"}, {"measurement": "MIC", "setting": "[12]", "value": 1.2, "unit": "µg/mL"}, {"measurement": "MIC", "setting": "[13]", "value": 1.2, "unit": "µg/mL"}, {"measurement": "MIC", "setting": "[14]", "value": 1.2, "unit": "µg/mL"}, {"measurement": "MIC", "setting": "[15]", "value": 1.2, "unit": "µg/mL"}, {"measurement": "MIC", "setting": "[16]", "value": 0.3, "unit": "µg/mL"}, {"measurement": "MIC", "setting": "[17]", "value": 1.2, "unit": "µg/mL"}, {"measurement": "MIC", "setting": "[18]", "value": 1.2, "unit": "µg/mL"}]}
